Results on twelve compounds are retold here after patent publication US10934297B2, “5-heteroaryl substituted indazole-3-carboxamides and preparation and use thereof” (Samumed, LLC, priority 2018, dated 2021).

In test [1] the test system is Wnt activity (Sp5-Luc reporter in SW480 cells). Nature of the test: Screening assay for Wnt activity: Sp5-Luc reporter gene assay in SW480 colon carcinoma cells. The class given is cell-based, human. The following applies: Homo sapiens, 36 to 48 hours. The procedure, abridged: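 SW480 colon carcinoma cells stably carrying a lentiviral luciferase reporter driven by an Sp5 promoter with eight TCF/LEF sites, plated at 4,000 cells/well in DMEM with 1% FBS. Compound exposure for 36–48 h at 37 °C, then luminescence read. Signals normalized to DMSO; EC50 from four-parameter nonlinear fit.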

Another test concerns the target DYRK1A kinase (Homo sapiens (Human), UniProt Q13627). In words: DYRK1A kinase assay (Ser/Thr 18 peptide Z-lyte FRET). The class given is biochemical. The following applies: read-out: EC50 (method: IC50). The procedure, abridged: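 This Z-lyte FRET assay reads the coumarin/fluorescein emission ratio. Compounds were incubated with the reaction mixture for 1 h at room temperature, followed by development reagent for a further 1 h at room temperature, in duplicate.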

The target of the next test is GSK3β kinase (Homo sapiens (Human), UniProt P49841). In words: GSK3β kinase assay (Ser/Thr 09 peptide Z-lyte FRET). Conditions: read-out: EC50 (method: IC50). The class given is biochemical. Summed up: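 Non-radioactive Z-lyte FRET read-out, kinase activity expressed as coumarin/fluorescein emission ratio. Compounds incubated with the reaction mixture one hour at room temperature in duplicate, then development buffer added for another hour. IC50 from non-linear regression of dose-response curves.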

For test [2], the system named is SW480 colon carcinoma cells. Nature of the test: Cell viability assay (CellTiter-Glo) in SW480 colon carcinoma cells. The following applies: Homo sapiens, 96 h, four days. The class given is cell-based, human. The procedure, abridged: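 SW480 cells stably carrying an Sp5-promoter luciferase reporter were plated at 2,000 cells/well in DMEM with 1% FBS and treated with compound for four days at 37 °C. Viability was read as ATP luminescence with CellTiter-Glo after about 12 min; DMSO-treated wells served as controls.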

The test system of test [3] is primary human fibroblasts derived from IPF patients (LL29 cells). In words: Inhibition of the fibrotic process: αSMA staining in TGF-β1 treated LL29 fibroblasts. The class given is cell-based. Conditions: Homo sapiens, Fibroblast; for EC50: 96 h, LL29 cells, TGF-β1 20 ng/mL, 4 days, % αSMA positive cells; for inhibition at 10 µM: read-out: percent inhibition at 10 μM. The procedure, abridged: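 LL29 fibroblasts from IPF patients, in F12 medium with 1% FBS, treated with TGF-β1 plus compound; TGF-β1 with DMSO as positive control, DMSO alone as negative control. After 4 days' incubation, SYTOX green nucleic acid stain added at 1 μM final, 30 min at room temperature.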

A further test has as its system IL-6. Nature of the test: IL-6 inhibition in LPS-stimulated human peripheral blood mononuclear cells (HTRF). The class given is cell-based. Conditions: Homo sapiens, PBMC; for EC50: huPBMCs, LPS 50 ng/mL, 22 hours, IL-6 HTRF; for inhibition at 10 µM: read-out: percent inhibition at 10 μM. Summed up:
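Fresh human PBMCs at 1×10e6 cells/mL in RPMI/1% FBS were stimulated with 50 ng/mL E. coli 0111:B4 LPS added 2 h after compound, then incubated 22 h at 37° C. Secreted IL-6 was measured by HTRF (665/620 nm ratio) after 3 h at room temperature. EC50 was taken from activity normalized to DMSO-treated cells.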

For test [4], the system named is primary human mesenchymal stem cells (hMSCs). In words: Tenocyte differentiation assay (SCXA-positive cells) in hMSCs. The class given is cell-based. Conditions: for EC50: Homo sapiens, Mesenchymal stem cells, 96 h, hMSCs, 4 days, SCXA positive cells; for percent in parentheses under EC50 >100: given for EC50 >100 μM, meaning not defined in this example. The source says: Representative compounds were screened using primary human mesenchymal stem cells (hMSCs) to determine their ability to induce tenocyte differentiation (process by which tendon is developed).
Primary human mesenchymal stem cells (hMSCs) were purchased from Lonza (Walkersville, Md.) and expanded in Mesenchymal Stem Cell Growth Media (Lonza). Cells between passage 3 and 6 were used for the experiments.
Cells were fixed using 4% formaldehyde (Electron Microscopy Sciences), and stained with anti-Sclerasis (anti-SCXA) antibodies (Abgent, San Diego, Calif.) [Webb S., et.al., Retinoic acid receptor signaling preserves tendon stem cell characteristics and prevents spontaneous differentiation in vitro, Stem Cell Research & Therapy 2016, 7:45] overnight at 4° C. […] Number of cells positive for SCXA in each well was quantified using the CellInsight CX5. Data was normalized to the average of 12 DMSO treated wells on the same plate using Dotmatics Studies module. The normalized averages (fold change over DMSO) of 3 replicate wells for each compound concentration were calculated. Due to solubility limitations of some of the compounds, values for higher doses were manually corrected and curve fitting and EC50 determinations were performed using Dotmatics Studies.

Chain of GSK3β kinase (P49841 whole entry): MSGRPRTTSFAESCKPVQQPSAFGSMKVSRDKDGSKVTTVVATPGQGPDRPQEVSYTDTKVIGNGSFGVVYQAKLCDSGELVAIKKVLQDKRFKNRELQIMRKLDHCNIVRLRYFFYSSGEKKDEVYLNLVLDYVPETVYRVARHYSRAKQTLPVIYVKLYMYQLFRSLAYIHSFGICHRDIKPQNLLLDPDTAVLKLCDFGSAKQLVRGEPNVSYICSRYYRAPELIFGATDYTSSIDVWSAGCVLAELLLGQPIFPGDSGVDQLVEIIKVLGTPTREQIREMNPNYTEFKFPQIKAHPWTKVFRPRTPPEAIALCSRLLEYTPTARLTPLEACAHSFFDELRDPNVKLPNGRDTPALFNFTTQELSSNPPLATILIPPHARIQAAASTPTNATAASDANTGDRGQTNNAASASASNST

For the compound `CN1CCC(Oc2ccc(NC(=O)c3n[nH]c4ccc(-c5cnn(C)c5)cc34)cc2)CC1` [Compound 122, 5-(1-Methyl-1H-pyrazol-4-yl)-N-(4-((1-methylpiperidin-4-yl)oxy)phenyl)-1H-indazole-3-carboxamide], the EC50 was 205 nM in test [1]; 380 nM in test [2]; 2640 nM in test [3]; 948 nM in the test on IL-6; over 100000 nM in test [4]. For the same compound, the figures for the 50% inhibitory concentration (IC50) at DYRK1A kinase and at GSK3β kinase were 2 nM and 38 nM, respectively. The “percent in parentheses under EC50 >100” value in test [4] is “(37.4%)”.

Take `CN1CCC(Oc2ccc(NC(=O)c3n[nH]c4ccc(-c5cnn(C)c5)cc34)cn2)CC1` [Compound 124, 5-(1-Methyl-1H-pyrazol-4-yl)-N-(6-((1-methylpiperidin-4-yl)oxy)pyridin-3-yl)-1H-indazole-3-carboxamide]: the EC50 was determined as 140 nM in test [1]; 170 nM in test [2]; 101 nM in test [3]; 989 nM in the test on IL-6; 315 nM in test [4]. The IC50 at DYRK1A kinase was determined as 1 nM; on GSK3β kinase, 23 nM.

Turning to `CN1CCC(n2cc(-c3ccc4[nH]nc(C(=O)Nc5cncc(F)c5)c4c3)cn2)CC1` [Compound 125, N-(5-Fluoropyridin-3-yl)-5-(1-(1-methylpiperidin-4-yl)-1H-pyrazol-4-yl)-1H-indazole-3-carboxamide], the EC50 in test [1] is 355 nM; in test [2] it was 664 nM; in test [3], 599 nM; in the test with IL-6, 3520 nM; in test [4], over 100000 nM. Moreover, the IC50 at DYRK1A kinase stood at 8 nM; at GSK3β kinase, 278 nM. The “percent in parentheses under EC50 >100” value in test [4] was “(12.3%)”.

In the case of `CN1CCC(n2cc(-c3cc4c(C(=O)Nc5cncc(F)c5)n[nH]c4cc3F)cn2)CC1` [Compound 126, 6-Fluoro-N-(5-fluoropyridin-3-yl)-5-(1-(1-methylpiperidin-4-yl)-1H-pyrazol-4-yl)-1H-indazole-3-carboxamide], the EC50 in test [1] stood at 335 nM; in test [2], 1530 nM; in test [3], 2450 nM; in the test with IL-6 it was 5780 nM; in test [4], 2590 nM. The IC50 stood at 9 nM on DYRK1A kinase and 237 nM at GSK3β kinase.

`Cc1ncc(NC(=O)c2n[nH]c3cc(F)c(-c4cnn(C5CCN(C)CC5)c4)cc23)s1` [Compound 127, 6-Fluoro-5-(1-(1-methylpiperidin-4-yl)-1H-pyrazol-4-yl)-N-(2-methylthiazol-5-yl)-1H-indazole-3-carboxamide]: the EC50 in test [1] is 100 nM; in test [2], 93 nM; in test [3], 48 nM; in the test with IL-6 it was 786 nM; in test [4], 2490 nM. Further, the IC50 came to 4 nM on DYRK1A kinase and 245 nM at GSK3β kinase.

On to `CNC(=O)c1ccc(NC(=O)c2n[nH]c3ccc(-c4cnn(C5CCN(C)CC5)c4)cc23)cn1` [Compound 128, N-(6-(Methylcarbamoyl)pyridin-3-yl)-5-(1-(1-methylpiperidin-4-yl)-1H-pyrazol-4-yl)-1H-indazole-3-carboxamide], for which the EC50 in test [1] stood at 180 nM; in test [2], 493 nM; in test [3], 439 nM; in the test on IL-6 it was 3280 nM; in test [4] it was 5720 nM. In addition, the figures for the IC50 on DYRK1A kinase and on GSK3β kinase were 5 nM and 633 nM, respectively.

Consider `CN1CCC(Oc2ccc(NC(=O)c3n[nH]c4c(F)cc(-c5cnn(C)c5)cc34)cn2)CC1` [Compound 129, 7-Fluoro-5-(1-methyl-1H-pyrazol-4-yl)-N-(6-((1-methylpiperidin-4-yl)oxy)pyridin-3-yl)-1H-indazole-3-carboxamide], for which the EC50 in test [1] is 6120 nM; in test [2] it was 3020 nM; in test [3], 1840 nM; in the test with IL-6 it was 6770 nM; in test [4], over 100000 nM. Also, the results for the IC50 at DYRK1A kinase and on GSK3β kinase were 30 nM and 87 nM, respectively. In addition, the “percent in parentheses under EC50 >100” value in test [4] is on record as “(13.0%)”.

For the compound `Cc1ncc(-c2ccc3[nH]nc(C(=O)N[C@@H](C)C(F)(F)F)c3c2)n1C` [Compound 131, (S)-5-(1,2-Dimethyl-1H-imidazol-5-yl)-N-(1,1,1-trifluoropropan-2-yl)-1H-indazole-3-carboxamide], the EC50 was over 10000 nM in test [1]; 3040 nM in test [2]; 4490 nM in test [3]; over 10000 nM with IL-6; 2770 nM in test [4]. The half-inhibitory concentration (IC50) at DYRK1A kinase came to 220 nM; on GSK3β kinase, 27 nM. The inhibition at 10 µM in the test with IL-6 stood at 15.1%.

Regarding `CC[C@H](NC(=O)c1n[nH]c2ccc(-c3cnc(C)n3C)cc12)C(F)(F)F` [Compound 132, (S)-5-(1,2-Dimethyl-1H-imidazol-5-yl)-N-(1,1,1-trifluorobutan-2-yl)-1H-indazole-3-carboxamide], the EC50 in test [1] was over 10000 nM; in test [2] it was over 10000 nM; in test [3], over 10000 nM; in the test on IL-6, over 10000 nM; in test [4], over 100000 nM. Further, the results for the IC50 on DYRK1A kinase and on GSK3β kinase were 453 nM and 106 nM, respectively. In addition, the inhibition at 10 µM in test [3] came to 48.8%; in the test on IL-6, 12.7%. Moreover, the “percent in parentheses under EC50 >100” value in test [4] is given as “(26.5%)”.

For `Cc1ncc(-c2ccc3[nH]nc(C(=O)N[C@@H](C(C)C)C(F)(F)F)c3c2)n1C` [Compound 133, (S)-5-(1,2-Dimethyl-1H-imidazol-5-yl)-N-(1,1,1-trifluoro-3-methylbutan-2-yl)-1H-indazole-3-carboxamide], the EC50 in test [1] was over 10000 nM; in test [2] it was over 10000 nM; in test [3], over 10000 nM; in the test on IL-6, over 10000 nM; in test [4], over 100000 nM. For the same compound, the IC50 on DYRK1A kinase is 930 nM; on GSK3β kinase, 1350 nM. Besides, the inhibition at 10 µM in test [3] came to 35.8%; in the test with IL-6, 20.2%. In addition, the “percent in parentheses under EC50 >100” value in test [4] is given as “(15.8%)”.

On to `Cc1ncc(-c2cc(F)c3[nH]nc(C(=O)N[C@@H](C)C(F)(F)F)c3c2)n1C` [Compound 134, (S)-5-(1,2-Dimethyl-1H-imidazol-5-yl)-7-fluoro-N-(1,1,1-trifluoropropan-2-yl)-1H-indazole-3-carboxamide], for which the EC50 in test [1] was over 10000 nM; in test [2], over 10000 nM; in test [3], 1070 nM; with IL-6 it was over 10000 nM; in test [4], over 100000 nM. Also, the values for the IC50 at DYRK1A kinase and on GSK3β kinase were 482 nM and 46 nM, respectively. The inhibition at 10 µM in the test on IL-6 came out at 8.1%. Also, the “percent in parentheses under EC50 >100” value in test [4] is on record as “(38.8%)”.

In the case of `C[C@H](NC(=O)c1n[nH]c2c(F)cc(-c3cnn(C)c3)cc12)C(F)(F)F` [Compound 135, (S)-7-Fluoro-5-(1-methyl-1H-pyrazol-4-yl)-N-(1,1,1-trifluoropropan-2-yl)-1H-indazole-3-carboxamide], the EC50 in test [1] was over 10000 nM; in test [2], over 10000 nM; in test [3] it was over 10000 nM; in the test on IL-6, over 10000 nM; in test [4], over 100000 nM. Besides, the IC50 on DYRK1A kinase was determined as 439 nM; at GSK3β kinase it was 43 nM. Besides, the inhibition at 10 µM in the test on IL-6 is 50.6%. The “percent in parentheses under EC50 >100” value in test [4] is “(16.1%)”.
